Tests used:
GSK3β = GSK3β (Homo sapiens, UniProt P49841); assay: GSK3beta assay (SPA, biotinylated phosphorylated CREB peptide, ATP-P33); format: biochemical; settings: -log IC50 (M); 19 nM GSK3β, 5 μM biotinylated phosphorylated CREB peptide, 1 μM ATP, 25° C., one hour
Experimental: GSK3beta assays were performed at 25° C. in a 100 μl reaction volume of 25 mM Tris (pH 7.4) containing 10 mM MgCl2, 1 mM DTT, 0.1 mg/ml BSA, 5% glycerol and containing 19 nM GSK3β, 5 μM biotinylated phosphorylated CREB peptide, 1 μM ATP, 2 nM ATP-P^33 and a suitable amount of a test compound of formula (I) or (I′). After one hour, the reaction was terminated by adding 70 μl of Stop mix (1 mM ATP, 18 mg/ml streptavidin coated PVT SPA bead pH 11.0). The beads to which the phosphorylated CREB peptide is attached were allowed to settle for 30 minutes and the radioactivity of the beads was counted in a microtiterplate scintillation counter and compared with the results obtained in a control experiment (without the presence of a test compound) in order to determine the percentage of GSK3β inhibition. The IC50 value, i.e. the concentration (M) of the test compound at which 50% of GSK3β is inhibited, was calculated from the dose response curve obtained by performing the above-described GSK3β assay in the presence of different amounts of the test compound.

Chain of GSK3β (P49841 whole entry, species assumed): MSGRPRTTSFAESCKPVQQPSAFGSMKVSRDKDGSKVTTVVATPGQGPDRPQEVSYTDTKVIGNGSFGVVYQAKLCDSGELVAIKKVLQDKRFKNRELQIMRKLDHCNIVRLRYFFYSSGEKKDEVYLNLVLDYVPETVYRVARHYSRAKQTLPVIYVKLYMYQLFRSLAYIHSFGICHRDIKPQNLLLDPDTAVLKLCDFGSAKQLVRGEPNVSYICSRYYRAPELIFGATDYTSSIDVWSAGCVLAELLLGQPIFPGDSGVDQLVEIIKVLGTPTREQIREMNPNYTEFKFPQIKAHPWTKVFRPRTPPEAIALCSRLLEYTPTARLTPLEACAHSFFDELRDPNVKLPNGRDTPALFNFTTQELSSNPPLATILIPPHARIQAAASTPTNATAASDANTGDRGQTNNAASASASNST

| SMILES | melting point | IC50 (GSK3β) |
| --- | --- | --- |
| N#Cc1ccc(Nc2ncccc2C(N)=O)cc1OCc1ccccc1 [Compound 1, 2-(3-benzyloxy-4-cyano-phenylamino)-nicotinamide] | 232 °C | – |
| CNC(=O)c1ccnc(Nc2ccc(C#N)c(OCc3ccccc3)c2)n1 [Compound 3] | – | 5.5e-08 M |
| CN(C)S(=O)(=O)Nc1cccc(COc2cc(Nc3nccc(C(N)=O)n3)ccc2C#N)c1 [Compound 8] | – | 2.09e-08 M |
| N#Cc1ccc(Nc2nccc(C(N)=O)n2)cc1OCc1cc(C(F)(F)F)cc(C(F)(F)F)c1 [Compound 9] | – | 3.8e-07 M |
| Cc1cc(C)cc(COc2cc(Nc3nccc(C(N)=O)n3)ccc2C#N)c1 [Compound 10] | – | 1.1e-07 M |
| N#Cc1ccc(Nc2nccc(C(N)=O)n2)cc1OCCN1CCOCC1 [Compound 11] | – | 2.63e-07 M |
| CN(C)CCOc1cc(Nc2nccc(C(N)=O)n2)ccc1C#N [Compound 12] | – | 8.91e-07 M |
| N#Cc1ccc(Nc2nccc(C(N)=O)n2)cc1OCCC1COc2ccccc2O1 (centres unmarked) [Compound 14] | – | 1.38e-07 M |
| N#Cc1ccc(Nc2nccc(C(N)=O)n2)cc1O/C=C/c1ccccc1 [Compound 15] | – | 1.32e-07 M |
| CC(COc1cc(Nc2nccc(C(N)=O)n2)ccc1C#N)Oc1ccc(F)cc1 (centres unmarked) [Compound 16, 2-[[4-cyano-3-[2-(4-fluorophenoxy)propoxy]phenyl]amino]-4-pyrimidinecarboxamide] | – | 3.89e-08 M |
| N#Cc1ccc(Nc2nccc(C(N)=O)n2)cc1OCCOc1ccc(F)cc1F [Compound 17] | – | 2.45e-07 M |
| N#Cc1ccc(Nc2nccc(C(N)=O)n2)cc1OCC1CC(c2cccnc2)=NO1 (centres unmarked) [Compound 22] | – | 2.34e-07 M |
| CCn1ccnc1COc1cc(Nc2nccc(C(N)=O)n2)ccc1C#N [Compound 24] | – | 4.79e-08 M |
| NC(=O)c1ccnc(Nc2cccc(OCc3ccccc3)c2)n1 [Compound 25] | – | 9.12e-08 M |
| CCc1noc(COc2cc(Nc3nccc(C(N)=O)n3)ccc2C#N)n1 [Compound 26] | – | 4.37e-07 M |
| N#Cc1ccc(Nc2nccc(C(N)=O)n2)cc1 [Compound 29] | – | 1.48e-07 M |
| N#Cc1ccc(COc2cc(Nc3nccc(C(N)=O)n3)ccc2C#N)cc1 [Compound 31] | – | 9.55e-08 M |
| N#Cc1ccc(Nc2nccc(C(N)=O)n2)cc1OCc1cccc(C(F)(F)F)c1 [Compound 36] | – | 4.07e-07 M |

Next, values leading:

| melting point | IC50 (GSK3β) | SMILES |
| --- | --- | --- |
| – | 5.01e-08 M | N#Cc1ccc(Nc2nccc(C(N)=O)n2)cc1OCc1ccccc1 [Compound 2, 2-[[4-cyano-3-(phenylmethoxy)phenyl]amino]-4-pyrimidinecarboxamide] |
| – | 5.25e-08 M | COc1ccc(COc2cc(Nc3nccc(C(N)=O)n3)ccc2C#N)cc1 [Compound 13, 2-[[4-cyano-3-[(4-methoxyphenyl)methoxy]phenyl]amino]-4-pyrimidinecarboxamide] |
| – | 5.75e-08 M | N#Cc1ccc(Nc2nccc(C(N)=O)n2)cc1OCCCc1ccccc1 [Compound 18] |
| – | 4.57e-07 M | N#Cc1ccc(Nc2nccc(C(N)=O)n2)cc1OCc1nc2ccccc2s1 [Compound 19] |
| – | 2.51e-08 M | N#Cc1ccc(Nc2nccc(C(N)=O)n2)cc1OCc1ccc2ccccc2n1 [Compound 21] |
| – | 8.13e-08 M | N#Cc1ccc(Nc2nccc(C(N)=O)n2)cc1OCc1cccc2ccccc12 [Compound 23] |
| – | 4.68e-08 M | COc1ccccc1COc1cc(Nc2nccc(C(N)=O)n2)ccc1C#N [Compound 30, 2-[[4-cyano-3-[(2-methoxyphenyl)methoxy]phenyl]amino]-4-pyrimidinecarboxamide] |
| – | 6.46e-08 M | Cc1cccc(COc2cc(Nc3nccc(C(N)=O)n3)ccc2C#N)c1 [Compound 32] |
| – | 1.78e-07 M | Cc1ccccc1COc1cc(Nc2nccc(C(N)=O)n2)ccc1C#N [Compound 34] |
| – | 1.55e-07 M | Cc1ccc(COc2cc(Nc3nccc(C(N)=O)n3)ccc2C#N)cc1 [Compound 35] |
| – | 5.5e-08 M | N#Cc1ccc(Nc2nccc(C(N)=O)n2)cc1OCc1ccc2ccccc2c1 [Compound 38, 2-[[4-cyano-3-(2-naphthalenylmethoxy)phenyl]amino]-4-pyrimidinecarboxamide] |
